Experimental data published in ChEMBL document CHEMBL4311972, “Discovery of a benzothiophene-flavonol halting miltefosine and antimonial drug resistance in Leishmania parasites through the application of medicinal chemistry, screening and genomics” (Eur J Med Chem, 2019).
pEC50: −log10 of the molar value.

What was measured:
CYP2C19 = CYP2C19 (Homo sapiens, UniProt P33261); test: Inhibition of human microsomal CYP2C19 expressed in baculovirus infected insect cells at 10 uM using luciferin-H EGE as substrate preincubated with enzyme/substrate mixture for 30 mins followed by further incubation with NADPH for 30 mins by CYP450 luciferase Glo assay relative to control; assay type: ADME; conditions: probe luciferin-H EGE
[1] = Cytotoxicity against human THP1 cells by MTT assay; assay type: cell-based, THP-1
hERG (KCNH2) = hERG (KCNH2) (Homo sapiens, UniProt Q12809); test: Inhibition of human ERG at 10 uM incubated for 2 hrs by fluorescence polarization assay relative to control
Trypanosoma brucei = test: Antitrypanosomal activity against Trypanosoma brucei bloodstream form assessed as parasite growth inhibition incubated for 72 hrs by resazurin dye based assay; assay type: functional, organism-based; conditions: Trypanosoma brucei, 72 h; read-out: EC50
CYP3A4 = CYP3A4 (Homo sapiens, UniProt P08684); test: Inhibition of human microsomal CYP3A4 expressed in baculovirus infected insect cells at 10 uM using luciferin-IPA as substrate preincubated with enzyme/substrate mixture for 30 mins followed by further incubation with NADPH for 30 mins by CYP450 luciferase Glo assay relative to control; assay type: ADME; conditions: probe luciferin-IPA
CYP2D6 = CYP2D6 (Homo sapiens, UniProt P10635); test: Inhibition of human microsomal CYP2D6 expressed in baculovirus infected insect cells at 10 uM using luciferin-ME as substrate preincubated with enzyme/substrate mixture for 30 mins followed by further incubation with NADPH for 30 mins by CYP450 luciferase Glo assay relative to control; assay type: ADME; conditions: probe luciferin-ME
CYP2C9 = CYP2C9 (Homo sapiens, UniProt P11712); test: Inhibition of human microsomal CYP2C9 expressed in baculovirus infected insect cells at 10 uM using luciferin-H as substrate preincubated with enzyme/substrate mixture for 30 mins followed by further incubation with NADPH for 30 mins by CYP450 luciferase Glo assay relative to control; assay type: ADME; conditions: probe luciferin-H
Leishmania infantum = test: Antileishmanial activity against luciferase expressing intracellular amastigote stage of Leishmania infantum infected in human THP1 cells assessed as parasite growth inhibition measured after 48 to 72 hrs by steady-glo luciferase assay; assay type: functional, organism-based; conditions: Leishmania infantum, THP-1; read-out: EC50
CYP1A2 = target: T1, CYP1A2 (Homo sapiens, UniProt P05177); test: Inhibition of human microsomal CYP1A2 expressed in baculovirus infected insect cells at 10 uM using luciferin-1A2 as substrate preincubated with enzyme/substrate mixture for 30 mins followed by further incubation with NADPH for 30 mins by CYP450 luciferase Glo assay relative to control; assay type: ADME; conditions: probe luciferin-1A2
T1 sequence (P05177 whole entry): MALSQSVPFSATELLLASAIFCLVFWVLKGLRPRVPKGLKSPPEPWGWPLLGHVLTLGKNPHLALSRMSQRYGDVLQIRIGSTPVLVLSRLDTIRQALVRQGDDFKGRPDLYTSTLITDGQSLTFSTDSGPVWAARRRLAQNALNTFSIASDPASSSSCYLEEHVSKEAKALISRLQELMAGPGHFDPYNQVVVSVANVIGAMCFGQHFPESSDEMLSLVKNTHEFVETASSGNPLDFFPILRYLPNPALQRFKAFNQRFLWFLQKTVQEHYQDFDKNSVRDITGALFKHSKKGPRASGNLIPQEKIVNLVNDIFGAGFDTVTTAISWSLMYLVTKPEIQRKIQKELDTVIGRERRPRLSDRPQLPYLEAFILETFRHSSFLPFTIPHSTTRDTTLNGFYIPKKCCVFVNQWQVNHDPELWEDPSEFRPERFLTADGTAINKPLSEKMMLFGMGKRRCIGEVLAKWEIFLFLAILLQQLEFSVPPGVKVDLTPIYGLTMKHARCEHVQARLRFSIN

[2] = Selectivity index, ratio of CC50 for human THP1 cells to EC50 for luciferase expressing intracellular amastigote stage of Leishmania infantum infected in human THP1 cells; assay type: toxicity, cell-based; conditions: read-out: Ratio CC50/EC50
[3] = Cytotoxicity against human A549 cells assessed as cell growth at […] incubated for 48 hrs by Celltiter-Glo luminescence assay relative to control; assay type: cell-based; design: dose or concentration left out as unconfirmed; conditions: read-out: Activity
786-0 = test: Mitochondrial toxicity in human 786-0 cells at 10 uM incubated with compound for 6 hrs followed by incubation with MitoTracker Red chloromethyl-X-rosamine dye for 45 mins by imaging analysis; assay type: cell-based; conditions: 786-0, 6 h
[4] = Selectivity index, ratio of CC50 for human THP1 cells to EC50 for Trypanosoma brucei bloodstream form; assay type: toxicity; conditions: read-out: Ratio CC50/EC50

Sequence of CYP2C19 (P33261 whole entry): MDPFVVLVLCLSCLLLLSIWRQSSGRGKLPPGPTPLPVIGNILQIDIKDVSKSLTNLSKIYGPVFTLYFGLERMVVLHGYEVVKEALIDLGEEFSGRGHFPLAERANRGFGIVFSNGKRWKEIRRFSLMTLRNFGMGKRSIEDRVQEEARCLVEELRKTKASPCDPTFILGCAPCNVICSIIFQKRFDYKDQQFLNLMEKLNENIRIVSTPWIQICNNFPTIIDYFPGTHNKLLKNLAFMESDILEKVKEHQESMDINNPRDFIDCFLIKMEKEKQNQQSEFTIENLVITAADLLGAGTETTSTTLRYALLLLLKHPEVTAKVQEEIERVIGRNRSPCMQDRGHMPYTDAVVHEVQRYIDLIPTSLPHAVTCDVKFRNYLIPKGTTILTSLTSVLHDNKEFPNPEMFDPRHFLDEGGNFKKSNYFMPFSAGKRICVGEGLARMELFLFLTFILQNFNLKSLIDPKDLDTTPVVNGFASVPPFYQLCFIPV
Sequence of CYP3A4 (P08684 whole entry): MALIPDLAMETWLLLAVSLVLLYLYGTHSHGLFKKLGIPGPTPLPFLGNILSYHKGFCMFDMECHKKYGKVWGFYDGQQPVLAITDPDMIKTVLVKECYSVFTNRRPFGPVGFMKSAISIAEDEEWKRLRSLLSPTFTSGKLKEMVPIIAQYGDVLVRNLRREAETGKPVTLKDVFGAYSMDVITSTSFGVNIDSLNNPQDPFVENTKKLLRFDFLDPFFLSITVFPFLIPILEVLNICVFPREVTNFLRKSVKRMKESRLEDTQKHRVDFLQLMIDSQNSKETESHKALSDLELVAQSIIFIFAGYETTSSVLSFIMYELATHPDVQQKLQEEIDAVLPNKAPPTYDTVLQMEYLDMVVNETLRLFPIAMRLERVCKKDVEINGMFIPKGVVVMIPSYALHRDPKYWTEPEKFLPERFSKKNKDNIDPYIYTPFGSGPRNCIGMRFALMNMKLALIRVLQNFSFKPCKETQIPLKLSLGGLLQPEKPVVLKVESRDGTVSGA
Sequence of CYP2C9 (P11712 whole entry): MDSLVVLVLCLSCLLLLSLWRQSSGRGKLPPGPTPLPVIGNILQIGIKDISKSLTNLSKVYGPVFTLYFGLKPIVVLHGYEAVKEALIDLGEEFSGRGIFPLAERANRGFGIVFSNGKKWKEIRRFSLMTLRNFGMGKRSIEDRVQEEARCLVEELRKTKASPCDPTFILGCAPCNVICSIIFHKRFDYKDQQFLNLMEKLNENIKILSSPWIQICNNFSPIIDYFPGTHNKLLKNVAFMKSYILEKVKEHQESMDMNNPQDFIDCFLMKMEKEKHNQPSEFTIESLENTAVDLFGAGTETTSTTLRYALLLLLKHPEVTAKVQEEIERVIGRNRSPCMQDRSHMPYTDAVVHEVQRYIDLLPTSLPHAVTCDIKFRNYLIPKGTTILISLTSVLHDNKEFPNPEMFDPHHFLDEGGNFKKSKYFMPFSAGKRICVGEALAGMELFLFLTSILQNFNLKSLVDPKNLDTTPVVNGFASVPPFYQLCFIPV
Sequence of hERG (KCNH2) (Q12809 whole entry): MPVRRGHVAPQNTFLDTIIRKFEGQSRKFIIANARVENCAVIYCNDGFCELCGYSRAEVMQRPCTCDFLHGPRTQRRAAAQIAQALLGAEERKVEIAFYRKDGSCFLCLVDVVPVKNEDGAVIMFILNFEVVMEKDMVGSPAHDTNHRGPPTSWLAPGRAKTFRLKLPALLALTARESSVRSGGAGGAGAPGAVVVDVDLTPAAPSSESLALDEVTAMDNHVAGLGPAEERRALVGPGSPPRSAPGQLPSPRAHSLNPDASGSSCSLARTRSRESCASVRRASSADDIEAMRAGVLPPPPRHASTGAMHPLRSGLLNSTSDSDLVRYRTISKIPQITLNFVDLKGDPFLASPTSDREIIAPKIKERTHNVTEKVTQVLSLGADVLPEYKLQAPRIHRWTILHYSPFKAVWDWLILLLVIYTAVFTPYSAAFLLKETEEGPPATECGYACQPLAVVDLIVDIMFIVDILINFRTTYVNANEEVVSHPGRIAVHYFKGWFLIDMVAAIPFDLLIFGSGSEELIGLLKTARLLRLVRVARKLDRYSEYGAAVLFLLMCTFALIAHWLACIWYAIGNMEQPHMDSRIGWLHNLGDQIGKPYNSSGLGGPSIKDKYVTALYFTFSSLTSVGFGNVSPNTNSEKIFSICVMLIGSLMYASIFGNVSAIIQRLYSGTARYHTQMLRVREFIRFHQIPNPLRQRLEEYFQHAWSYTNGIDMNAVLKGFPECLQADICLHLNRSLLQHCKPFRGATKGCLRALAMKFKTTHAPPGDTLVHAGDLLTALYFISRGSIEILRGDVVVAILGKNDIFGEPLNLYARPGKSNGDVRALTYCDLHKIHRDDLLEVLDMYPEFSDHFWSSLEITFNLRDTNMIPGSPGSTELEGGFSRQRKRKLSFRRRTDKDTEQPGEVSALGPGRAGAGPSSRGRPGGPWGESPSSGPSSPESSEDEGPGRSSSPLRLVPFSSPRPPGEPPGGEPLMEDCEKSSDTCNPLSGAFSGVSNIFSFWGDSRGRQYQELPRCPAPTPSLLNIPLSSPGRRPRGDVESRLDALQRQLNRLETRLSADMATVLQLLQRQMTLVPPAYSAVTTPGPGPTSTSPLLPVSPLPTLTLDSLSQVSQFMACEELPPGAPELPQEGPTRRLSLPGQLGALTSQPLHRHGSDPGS
Sequence of CYP2D6 (P10635 whole entry): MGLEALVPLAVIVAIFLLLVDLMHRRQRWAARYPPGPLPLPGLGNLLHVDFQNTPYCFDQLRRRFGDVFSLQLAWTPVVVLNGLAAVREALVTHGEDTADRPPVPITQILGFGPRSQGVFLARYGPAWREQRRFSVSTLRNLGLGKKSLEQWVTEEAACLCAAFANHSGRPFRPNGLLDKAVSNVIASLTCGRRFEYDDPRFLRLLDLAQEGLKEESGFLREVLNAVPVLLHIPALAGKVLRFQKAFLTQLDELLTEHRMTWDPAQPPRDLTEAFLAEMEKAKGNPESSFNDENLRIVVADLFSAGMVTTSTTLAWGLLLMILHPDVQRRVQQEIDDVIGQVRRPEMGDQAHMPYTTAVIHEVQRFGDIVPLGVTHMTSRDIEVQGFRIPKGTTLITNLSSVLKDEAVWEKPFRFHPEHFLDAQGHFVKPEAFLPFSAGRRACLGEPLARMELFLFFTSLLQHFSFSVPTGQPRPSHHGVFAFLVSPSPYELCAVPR

| inhibition at 0.5 h, 10 µM (CYP2C19) [%] | pEC50 (Trypanosoma brucei) | inhibition at 0.5 h, 10 µM (CYP3A4) [%] | inhibition at 0.5 h, 10 µM (CYP2D6) [%] | inhibition at 0.5 h, 10 µM (CYP2C9) [%] | inhibition at 0.5 h, 10 µM (CYP1A2) [%] | SMILES | CC50 [1] [µM] | inhibition at 2 h, 10 µM (hERG (KCNH2)) [%] | pEC50 (Leishmania infantum) | selectivity ratio [2] | viability at 48 h [3] [%] | Activity (786-0) [%] | selectivity ratio [4] |
| --- | --- | --- | --- | --- | --- | --- | --- | --- | --- | --- | --- | --- | --- |
| 33.9 | 5.89 | 61.8 | 29.3 | 48.3 | 83.3 | CCCCC(=O)Oc1c(-c2csc3ccccc23)oc2ccc(OC)cc2c1=O | 12.5 to 25 | 1.12 | 5.62 | 5 | 12.4 | 0.75 |  |
| 32.6 | 5.85 | 11 | -8 | 28.8 | 101 | COc1ccc2oc(-c3c[nH]c4ccccc34)c(O)c(=O)c2c1 | 12.5 to 25 | 41.2 |  |  | 20.9 | -12.53 | 8 |
| 26 | 5.82 | 11.5 | 16.8 | 25.4 | 86.4 | O=c1c(O)c(-c2csc3ccccc23)oc2ccc(F)cc12 | 25 to 50 | -29.6 | 5.22 | 4 | 99.1 | -23.6 |  |
| 24.3 | 5.82 | -6.12 | 27.5 | 25.3 | 78 | O=c1c(O)c(-c2csc3ccccc23)oc2ccc(Br)cc12 | 25 to 50 | -60.1 | 5.57 | 9 | 119 | -22.7 |  |
| 12 | 5.68 | 1.36 | 16.2 | 28.6 | 84.7 | O=c1c(O)c(-c2csc3ccccc23)oc2ccc(Cl)cc12 | 12.5 to 25 | -14 | 5.57 | 5 | 126 | -21.98 |  |
| 35.2 | 5.31 | 79.4 | 9.1 | 45.5 | 108 | COc1ccc2c(=O)c(O)c(-c3sccc3C)oc2c1 | 12.5 to 25 | -3.84 |  |  | 65 | -8.17 | 3 |
| 80.3 | 6.40 | 55.5 | 105 | 72.7 | 101 | COc1ccc2c(=O)c(O)c(-c3ccc4c(c3)OCO4)oc2c1 | > 100 | 9.49 |  |  | 43.2 | 6.41 | 250 |
| 35.2 | 5.31 | 17.6 | 40.1 | 40.1 | 96.1 | Cc1csc(-c2oc3ccc(O)cc3c(=O)c2O)c1 | 10 to 25 | 16.1 |  |  | 93.8 | 4.24 | 2 |
| 19.1 | 5.48 | 10.4 | 22.6 | 6.64 | 96.5 | Cc1ccc2oc(-c3ccc(C)s3)c(O)c(=O)c2c1 | 25 to 50 | 34.3 |  |  | 30.9 | -15.83 | 7 |
| 26.2 | 5.55 | 23.5 | 25.3 | 35.1 | 98.8 | Cc1csc(-c2oc3ccc(C)cc3c(=O)c2O)c1 | > 100 | 13.2 |  |  | 15.3 | -13.79 | 36 |
| 69.6 | 5.89 | 42 | 30.8 | -229 | 90.7 | COc1ccc2oc(-c3csc4ccccc34)c(OC(C)=O)c(=O)c2c1 | 12.5 to 25 | -30 | 5.68 | 6 | 47.3 | -27.27 |  |
| 77.9 | 5.52 | 12.5 | 33.6 | 59.6 | 103 | COc1ccc2c(=O)c(O)c(-c3cc(C)cs3)oc2c1 | 25 to 50 | 5.93 |  |  | 80.9 | 0.01 | 8 |
| 19.2 | 5.47 | 24.5 | 21.2 | 53.5 | 106 | COc1cccc2oc(-c3cc(C)cs3)c(O)c(=O)c12 | 12.5 to 25 | -7.47 |  |  | 25.3 | -7.63 | 4 |
| 31.5 | 5.77 | 21.5 | 34 | -22.6 | 51.9 | O=c1c(O)c(-c2cccc(-c3ccc(O)c(O)c3)c2)oc2ccc(O)cc12 | 25 to 50 | 4.2 |  |  | 32.5 | -1.03 | 15 |
| 24.5 | 5.41 | 44.6 | 21.9 | 25.8 | 61.8 | COc1ccc2oc(-c3cccc(-c4ccc5c(c4)OCO5)c3)c(O)c(=O)c2c1 | 25 to 50 | 0.34 |  |  | 30.5 | -1.63 | 6 |
| 20.9 | 5.24 | 4.51 | 30.6 | 29.2 | 94.8 | COc1ccc2oc(-c3cc(C)cs3)c(O)c(=O)c2c1 | 25 to 50 | 6.55 |  |  | 98.8 | -5.29 | 4 |
| 22 | 5.52 | 52.5 | 40.6 | 40.1 | 83.1 | COc1ccc2oc(-c3cccc(-c4ccc(OC)c(OC)c4)c3)c(O)c(=O)c2c1 | 25 to 50 | -14.3 |  |  | 19.5 | -9.66 | 8 |
| 47.9 | 5.51 | 18.7 | -0.42 | 40.2 | 101 | O=c1c(O)c(-c2c[nH]c3ccccc23)oc2ccc(O)cc12 | 50 to 100 | 53.2 |  |  | 5.87 | 17.38 | 16 |
